Key:
[1] = target: T1, Mdm2/p53 binding (GST-Mdm2 / His-p53) (Homo sapiens, UniProt Q00987, L33E); test: Mdm2/p53 binding assay (HTRF, His-p53 and GST-Mdm2); conditions: His-p53 (aa 1-132) and GST-Mdm2 (aa 25-108, L33E) 6.25 nM each; 25°C, 1 hour; values given as ranges
T1 construct: Mdm2 partial protein having Mdm2 amino acids at positions 25 to 108
How it was run: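 His-p53 (aa 1–132) and GST-Mdm2 (aa 25–108, L33E) were prepared at 6.25 nM each in the protein dilution (20 mM HEPES pH 7.4, 150 mM NaCl, 0.1% BSA). Compound in 10% DMSO buffer and XL665 anti-His/Eu anti-GST antibodies (KF buffer) were added, with 1 h at 25 °C. The 665/620 nm TR-FRET ratio gave T/C and a sigmoid-fitted IC50.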

[2] = tested on: human lung cancer-derived cell line NCI-H460 having wild-type p53; test: Cell growth inhibition assay (MTT); assay type: cell-based; conditions: 72 h, NCI-H460 cells, 3 days culture, values given as ranges, read-out: 50% growth inhibition concentration (GI50 value)
How it was run: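 NCI-H460 cells (wild-type p53) seeded at 500 cells/well in RPMI1640 with 10% FBS, then treated the next day and grown 3 days at 37 °C. MTT read-out at OD 540 nm (660 nm reference), taken at dosing and at day 3. GI50 derived from T/C (%) dose-response curves.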

T1 sequence (Q00987 25-108 L33E): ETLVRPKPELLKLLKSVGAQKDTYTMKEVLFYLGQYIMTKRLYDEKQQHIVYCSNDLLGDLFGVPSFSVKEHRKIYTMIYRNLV

IC50 [1] [nM]	GI50 [2] [nM]	Structure (SMILES)
1 to 50	< 100	CN(C)C(=O)[C@H]1CC[C@H](NC(=O)[C@@H]2NC3(CCC(C)(C)CC3)[C@@]3(C(=O)Nc4cc(Cl)ccc43)[C@H]2c2ccnc(Cl)c2F)CC1 [Example 113, (3′R, 4′S,5′R)-6″-chloro-4′-(2-chloro-3-fluoropyridin-4-yl)-N-[trans-4-(dimethylcarbamoyl)cyclohexyl]-4,4-dimethyl-2″-oxo-1″,2″-dihydrodispiro[cyclohexane-1,2′-pyrrolidine-3′,3″-indole]-5′-carboxamide]
1 to 50	500 to 1000	CC1(C)CCC2(CC1)N[C@@H](C(=O)N[C@H]1C[C@H](C(N)=O)C1)[C@H](c1ccnc(Cl)c1F)[C@]21C(=O)Nc2cc(Cl)ccc21 [Example 114, (3′R, 4′S,5′R)—N-(trans-3-carbamoylcyclobutyl)-6″-chloro-4′-(2-chloro-3-fluoropyridin-4-yl)-4,4-dimethyl-2″-oxo-1″,2″-dihydrodispiro[cyclohexane-1,2′-pyrrolidine-3′,3″-indole]-5′-carboxamide]
1 to 50	100 to 500	CN(C)C(=O)[C@H]1C[C@H](NC(=O)[C@@H]2NC3(CCC(C)(C)CC3)[C@@]3(C(=O)Nc4cc(Cl)ccc43)[C@H]2c2ccnc(Cl)c2F)C1 [Example 115, (3′R, 4′S,5′R)-6″-chloro-4′-(2-chloro-3-fluoropyridin-4-yl)-N-[trans-3-(dimethylcarbamoyl)cyclobutyl]-4,4-dimethyl-2″-oxo-1″,2″-dihydrodispiro[cyclohexane-1,2′-pyrrolidine-3′,3″-indole]-5′-carboxamide]
1 to 50	< 100	CCN(CC)C(=O)[C@@H]1CC[C@@H](NC(=O)[C@@H]2NC3(CCC(C)(C)CC3)[C@@]3(C(=O)Nc4cc(Cl)ccc43)[C@H]2c2ccnc(Cl)c2F)CO1 [Example 116, (3′R, 4′S,5′R)-6″-chloro-4′-(2-chloro-3-fluoropyridin-4-yl)-N-[(3R,6S)-6-(diethylcarbamoyl)tetrahydro-2H-pyran-3-yl]-4,4-dimethyl-2″-oxo-1″,2″-dihydrodispiro[cyclohexane-1,2′-pyrrolidine-3′,3″-indole]-5′-carboxamide]
1 to 50	100 to 500	CCN(CC)C(=O)[C@@H]1CC[C@@H](NC(=O)[C@@H]2NC3(CCC(C)(C)CC3)[C@@]3(C(=O)Nc4nc(Cl)ccc43)[C@H]2c2ccnc(Cl)c2F)CO1 [Example 117, (3′R, 4′S,5′R)-6″-chloro-4′-(2-chloro-3-fluoropyridin-4-yl)-N-[(3R,6S)-6-(diethylcarbamoyl)tetrahydro-2H-pyran-3-yl]-4,4-dimethyl-2″-oxo-1″,2″-dihydrodispiro[cyclohexane-1,2′-pyrrolidine-3′,3″-pyrrolo[2,3-b]pyridine]-5′-carboxamide]
50 to 100	100 to 500	CC1(C)CCC2(CC1)N[C@@H](C(=O)N[C@H]1C[C@H](C(C)(C)O)C1)[C@H](c1ccnc(Cl)c1F)[C@]21C(=O)Nc2cc(Cl)ccc21 [Example 154, (3′R, 4′S,5′R)-6′-chloro-4′-(2-chloro-3-fluoropyridin-4-yl)-N-[trans-3-(2-hydroxypropan-2-yl)cyclobutyl]-4,4-dimethyl-2″-oxo-1″,2″-dihydrodispiro[cyclohexane-1,2′-pyrrolidine-3′,3″-indole]-5′-carboxamide]
1 to 50	< 100	Cc1nnc([C@@H]2CC[C@@H](NC(=O)[C@@H]3NC4(CCC(C)(C)CC4)[C@@]4(C(=O)Nc5cc(Cl)ccc54)[C@H]3c3ccnc(Cl)c3F)CO2)o1 [Example 156]
50 to 100	< 100	CC1(C)CCC2(CC1)N[C@@H](C(=O)N[C@@H]1CC[C@@H](CCO)OC1)[C@H](c1ccnc(Cl)c1F)[C@]21C(=O)Nc2cc(Cl)ccc21 [Example 160, (3′R, 4′S,5′R)-6″-chloro-4′-(2-chloro-3-fluoropyridin-4-yl)-N-[(3R,6S)-6-(2-hydroxyethyl)tetrahydro-2H-pyran-3-yl]-4,4-dimethyl-2″-oxo-1″,2″-dihydrodispiro[cyclohexane-1,2′-pyrrolidine-3′,3″-indole]-5′-carboxamide]
50 to 100	100 to 500	CC1(C)CCC2(CC1)N[C@@H](C(=O)N[C@@H]1CC[C@@H](Cc3nnco3)OC1)[C@H](c1ccnc(Cl)c1F)[C@]21C(=O)Nc2cc(Cl)ccc21 [Example 161, (3′R, 4′S,5′R)-6″-chloro-4′-(2-chloro-3-fluoropyridin-4-yl)-4,4-dimethyl-N-[(3R,6S)-6-(1,3,4-oxadiazol-2-ylmethyl)tetrahydro-2H-pyran-3-yl]-2″-oxo-1″,2″-dihydrodispiro[cyclohexane-1,2′-pyrrolidine-3′,3″-indole]-5′-carboxamide]
50 to 100	100 to 500	CC1(C)CCC2(CC1)N[C@@H](C(=O)NC1CC3(C1)CC(CO)(CO)C3)[C@H](c1ccnc(Cl)c1F)[C@]21C(=O)Nc2cc(Cl)ccc21 [Example 162, (3′R, 4′S,5′R)—N-[6,6-bis(hydroxymethyl)spiro[3.3]hepta-2-yl]-6″-chloro-4′-(2-chloro-3-fluoropyridin-4-yl)-4,4-dimethyl-2′-oxo-1″,2″-dihydrodispiro[cyclohexane-1,2′-pyrrolidine-3′,3″-indole]-5′-carboxamide]
100 to 500	1000 to 5000	O=C(N[C@@H]1CC[C@@H](CO)OC1)[C@@H]1NC2(CC(CF)(CF)C2)[C@@]2(C(=O)Nc3cc(Cl)ccc32)[C@H]1c1cc(F)cc(Cl)c1 [Example 164, (3′R, 4′R, 5′R)-6″-chloro-4′-(3-chloro-5-fluorophenyl)-3,3-bis(fluoromethyl)-N-[(3R,6S)-6-(hydroxymethyl)tetrahydro-2H-pyran-3-yl]-2″-oxo-1″,2″-dihydrodispiro[cyclobutane-1,2′-pyrrolidine-3′,3″-indole]-5′-carboxamide]
1 to 50	> 5000	CC1(C)CCC2(CC1)N[C@@H](C(=O)N[C@@H]1CC[C@@H](C(=O)O)OC1)[C@H](c1ccnc(Cl)c1F)[C@]21C(=O)Nc2cc(Cl)ccc21 [Example 174, (2S,5R)-5-({[(3′B, 4′S,5′R)-6″-chloro-4′-(2-chloro-3-fluoropyridin-4-yl)-4,4-dimethyl-2″-oxo-1′″, 2″-dihydrodispiro[cyclohexane-1,2-pyrrolidine-3′,3″-indole]-5′-yl]carbonyl}amino)tetrahydro-2H-pyran-2-carboxylic acid]
1 to 50	1000 to 5000	CC1(C)CCC2(CC1)N[C@@H](C(=O)N[C@@H]1CC[C@@H](C(N)=O)OC1)[C@H](c1cccc(Cl)c1F)[C@]21C(=O)Nc2nc(Cl)ccc21 [Example 179, (3′R, 4′S,5′R)—N-[(3R,6S)-6-carbamoyltetrahydro-2H-pyran-3-yl]-6″-chloro-4′-(3-chloro-2-fluorophenyl)-4,4-dimethyl-2″-oxo-1″,2″-dihydrodispiro[cyclohexane-1,2′-pyrrolidine-3′,3″-pyrrolo[2,3-b]pyridine]-5′-carboxamide]
1 to 50	1000 to 5000	C[C@@H](O)[C@@H]1CC[C@@H](NC(=O)[C@@H]2NC3(CCC(C)(C)CC3)[C@@]3(C(=O)Nc4nc(Cl)ccc43)[C@H]2c2cccc(Cl)c2F)CO1 [Example 180, (3′R, 4′S,5′R)-6″-chloro-4′-(3-chloro-2-fluorophenyl)-N-{(3R,6S)-6-[(1R)-1-hydroxyethyl]tetrahydro-2H-pyran-3-yl}-4,4-dimethyl-2″-oxo-1″,2″-dihydrodispiro[cyclohexane-1,2′-pyrrolidine-3′,3″-pyrrolo[2,3-b]pyridine]-5′-carboxamide]

— patent publication US12545685B2 (Daiichi Sankyo Company, Limited, priority 2011, dated 2026)
